Data from patent publication US6673561B1, “Diagnostic test for thrombotic or thromboembolic disease” (Regents of the University of California, priority 1999, dated 2004).
“Also recorded” adds a separate entry of the source.

What was measured:
[1] = test system: FPB antiserum (R4097, bleed I3); assay: Competitive ELISA for specificity of the FPB antiserum (competitor in solution vs surface-bound synthetic human FPB); format: binding, rabbit; settings: for IC50: FPB antiserum 1:2500, competitive ELISA, read-out: IC50, competition for antibody binding to surface-bound synthetic human FPB; for competition / cross-reaction with FPB antiserum (in words): competitor in solution vs surface-bound synthetic human FPB; for cross-reactivity, defined as IC50 of FPB divided by IC50 of competitor times 100: FPB antiserum, competitive ELISA
Protocol: A competitive ELISA was developed to evaluate the specificity of the FPB antiserum. Unless otherwise noted, all steps were performed at room temperature, and the microplates were washed three times in between each step with 0.02 M NaH2PO4, 0.15 M NaCl, 1 mM EDTA, pH 7.4 (PNE) containing 0.1% tween-20. Microplate wells were first coated with synthetic human FPB ([…] in 0.2 M NaHCO3, […]) overnight at 4 C., and then “blocked” with 1% BSA in PNE (PNEA) for one hour. Meanwhile, serial dilutions of each competitor were prepared. The following competitors, all of human origin except where noted, were tested: native FPB (human and canine), synthetic FPB, synthetic des-arg FPB, synthetic fibrinopeptide A, and purified fibrinogen. […] of each competitor dilution were pre-incubated separately with […] of FPB antiserum (1:2500) in polypropylene microfuge tubes for 90 min. Dilutions of the competitors and of antiserum were prepared in dilution buffer (PNEA containing 0.1% tween-20). At the end of the pre-incubation period, 100 mL of each mixture were applied to duplicate FPB-coated wells and incubated for 90 min. After washing, 100 mL of peroxidase-conjugated goat anti-rabbit IgG detecting antibody (1:5000 in dilution buffer) were added to each well and incubated for one hour. After a final wash, each well was developed with 100 ml of OPD substrate solution for exactly five minutes. The reaction was stopped by addition of an equal volume of 3 N H2SO4, and the absorbance (490 nm) of each well was measured in the microplate reader.
A competitive ELISA was developed for determination of the FPB concentration in plasma and urine ultrafiltrates. Unless otherwise noted, all steps were performed at room temperature, and the microplates were washed three times in between each step with 0.02 M NaH2PO4, 0.15 M NaCl, 1 mM EDTA, pH 7.4 (PNE) containing 0.1% tween-20. Microplate wells were first coated with synthetic FPB (2 μg/ml in 0.2 M NaHCO3, 100 μl/well) overnight at 4 C., and then “blocked” with 1% BSA in PNE (PNEA) for one hour. Meanwhile, 20 μl of ultrafiltered samples and synthetic FPB standards (1.56-100 ng/ml) were pre-incubated separately with 200 μl of FPB antiserum (1:2500) in polypropylene microfuge tubes for one hour. Dilutions of the FPB standard and antiserum were prepared in dilution buffer (PNEA containing 0.1% tween-20). At the end of the pre-incubation period, 100 μl of each mixture were applied to duplicate FPB-coated wells and incubated for one hour. After washing, 100 μl of peroxidase-conjugated goat anti-rabbit IgG detecting antibody (1:5000 in dilution buffer) were added to each well and incubated for one hour. After a final wash, each well was developed with 100 μl of OPD substrate solution for exactly five minutes. The reaction was stopped by addition of an equal volume of 3 N H2SO4, and the absorbance (490 nm) of each well was measured in a microplate reader. The concentration of FPB in the samples was interpolated from a standard curve obtained by plotting the FPB concentration of each standard versus the corresponding absorbance. If sample values exceeded the upper limit of the standard curve, those samples were re-tested after appropriate dilution with dilution buffer. The intra- and inter-assay coefficients of variation for the FPB assay were 14.1% and 5.0%, respectively. The competitive ELISA was also used to assess the cross-reactivity of the FPB antiserum with human fibrinogen, fibrinopeptide A (FPA), des-arg FPB, and canine FPB.

[2] = test system: experimentally induced thrombi; assay: Canine experimental thrombosis model, FPBtot in plasma and urine (Example 2); format: in vivo, dog; settings: heparin bolus 300 units/kg, infusion 90 units/kg/hr after embolization, three dogs
Excerpt: Adult mongrel dogs were anesthetized and their native fibrinogen depleted. After the ancrod has been eliminated from the circulation, during a time when the native fibrinogen activity is minimal, experimental thrombi are induced as previously described (Morris et al. 1997b). The dogs are anesthetized with halothane, intubated and mechanically ventilated to maintain arterial blood gases within normal limits. […] After this, they were transfused with 6 grams of purified human fibrinogen in normal saline to achieve a fibrinogen level of at least 300 mg/dl. Under these conditions, fibrinogen levels were maintained at >200 mg/dl throughout the study period.
Double balloon catheters were advanced via hind-leg saphenous veins to the femoral veins on each side. The balloons were then inflated, creating a 5 ml sealed chamber within the veins. […]
Blood and urine samples were collected into titrated tubes (containing protease inhibitors) at baseline, after defibrinogenation, at regular intervals after thrombus induction, and after anticoagulation. […] All samples were stored at […] until analyzed. FPBtot levels in urine and ultrafiltrated plasma are determined by immunoassay as described above.
The means and standard deviations of the FPBtot levels, as determined by immunoassay, associated with each time point are calculated. […]

[3] = test system: femoral vein thrombi / pulmonary emboli; assay: Canine fibrinogen-replacement thrombosis and pulmonary embolism model, FPB in plasma and urine (Example 3); format: in vivo, dog; settings: n=3
Protocol: A competitive ELISA was developed for determination of the FPB concentration in plasma and urine ultrafiltrates. Unless otherwise noted, all steps were performed at room temperature, and the microplates were washed three times in between each step with 0.02 M NaH2PO4, 0.15 M NaCl, 1 mM EDTA, pH 7.4 (PNE) containing 0.1% tween-20. Microplate wells were first coated with synthetic FPB (2 μg/ml in 0.2 M NaHCO3, 100 μl/well) overnight at 4 C., and then “blocked” with 1% BSA in PNE (PNEA) for one hour. Meanwhile, 20 μl of ultrafiltered samples and synthetic FPB standards (1.56-100 ng/ml) were pre-incubated separately with 200 μl of FPB antiserum (1:2500) in polypropylene microfuge tubes for one hour. Dilutions of the FPB standard and antiserum were prepared in dilution buffer (PNEA containing 0.1% tween-20). At the end of the pre-incubation period, 100 μl of each mixture were applied to duplicate FPB-coated wells and incubated for one hour. […] The reaction was stopped by addition of an equal volume of 3 N H2SO4, and the absorbance (490 nm) of each well was measured in a microplate reader. The concentration of FPB in the samples was interpolated from a standard curve obtained by plotting the FPB concentration of each standard versus the corresponding absorbance. […]

[4] = Urinary FPBtot before and during anticoagulation in VTE patients (Example 6); format: in vivo, human
Excerpt: Consecutive patients referred to the VTE service in whom the diagnosis of DVT and/or PE is confirmed (based on the criteria described above) are enrolled. Prior to therapy, blood and urine samples are collected for measurement of FPBtot (and other FPB measurements described above). Patients are then be treated with intravenous heparin (80 units/kg bolus, 18 units/kg/hr infusion), with the dose adjusted per protocol to keep aPTT 1.5-2.5 times the control values. As soon as steady-state “therapeutic doses” of heparin are maintained, blood and urine are collected again and the same parameters are measured. In addition, plasma aPTT, anti-Xa and anti-thrombin measurements are made as previously described (Morris et al. 1998).
For each patient, the difference between urinary and plasma FPBtot levels, measured before and after anticoagulation, is recorded. The mean reduction in FPBtot levels after anticoagulation is calculated. The required sample size is estimated based on the preliminary data described below: The mean (+/−SD) decrease in urinary FPBtot during anticoagulation was 60 ng/ml (+/−85.7 ng/ml). Assuming similar standard deviations for the VTE patients to be studied, thirty-seven pairs of samples are required in order to detect a 50% decrease in the levels after anticoagulation, with an alpha of 0.01 and a power of 95%.

**Q.** For “fibrinogen: purified human fibrinogen, used as ELISA competitor and for transfusion of dogs”, which IC50 [1] is on record?
**A.** Its IC50 is 2.3 nM.

**Q.** And the “competition / cross-reaction with FPB antiserum (in words)” value (“competition / cross-reaction” below) [1]?
**A.** Its value is “significant cross-reaction; also recorded: significant cross-reactivity”.

**Q.** With “QGVNDNEEGFFSAR [FPB, human fibrinopeptide B, cleaved by thrombin from the beta-chains of fibrin I]” as the substance, how does the IC50 [1] read?
**A.** Its IC50 is 6.7 nM.

**Q.** Which “competition / cross-reaction” value [1] does the source give for “native canine FPB: FPB derived from purified canine fibrinogen clotted with thrombin, ultrafiltrate (HYYDDTDEEERIVSTVDAR)” here?
**A.** The value was “did not compete”.

**Q.** Which results are given for “QGVNDNEEGFFSA [des-arg FPB, degradation product formed as FPB is exposed to carboxypeptidases in normal plasma]”?
**A.** IC50 [1]: 8.9 nM; cross-reactivity, defined as IC50 of FPB divided by IC50 of competitor times 100 [1]: 75%

**Q.** Which “competition / cross-reaction” value [1] does the source give for “native human FPB: FPB derived from purified human fibrinogen clotted with thrombin, ultrafiltrate (QGVNDNEEGFFSAR)” here?
**A.** The value was “effective competitive inhibitor”.

**Q.** For “FPA: short amino acid sequence at the amino terminus of the alpha chain of fibrinogen (ADSGEGDFLAEGGGVR)”, which “cross-reactivity, defined as IC50 of FPB divided by IC50 of competitor times 100” value [1] is on record?
**A.** Its value is under 0.1%.

**Q.** Which “thrombosis after excess heparin” value [2] does the source give for heparin here?
**A.** Its value is “thrombosis is halted”.

**Q.** And the “rise in plasma FPB following embolization” value ([3]; heparin iv 300 units/kg bolus, 90 units/kg/hr, one hour prior to embolization)?
**A.** Its value is “completely suppressed”.

**Q.** What about the “initial peak of total urinary FPB” value ([3]; heparin iv one hour prior to embolization) of the same substance?
**A.** Its value is “suppressed”.

**Q.** And the “urinary levels of FPB during anticoagulation (in words)” value ([4]; all but one patient)?
**A.** The value was “significantly decreased”.

**Q.** What about the “mean decrease in urinary FPBtot during anticoagulation” value ([4]; preliminary data, mean (+/-SD)) of the same substance?
**A.** Its value is 60 ng/mL.
